Like-named read-outs stand apart in the source and are kept apart here.
Tests used:
Assay type in all cases: in vivo
Rhyncosporium secalis = experiment: Barley scald (RHYNSE), percent disease control; conditions: 24 h, 1 Day Protectant, read-out: Disease control RHYNSE 1DP
Procedure: Technical grades of materials were dissolved in acetone, which were then mixed with nine volumes of water containing 110 ppm Triton X-100. The fungicide solutions were applied onto wheat seedlings using an automated booth sprayer to run-off. All sprayed plants were allowed to air dry prior to further handling. All fungicides were evaluated using the aforementioned method for their activity vs. all target diseases. Wheat leaf blotch and brown rust activity were also evaluated using track spray applications, in which case the fungicides were formulated as EC formulations, containing 0.1% Trycol 5941 in the spray solutions. Wheat plants (variety Yuma) were grown from seed in a greenhouse in 50% mineral soil/50% soil-less Metro mix until the first leaf was fully emerged, with 7-10 seedlings per pot. These plants were inoculated with an aqueous spore suspension of Septoria tritici either prior to or after fungicide treatments. After inoculation the plants were kept in 100% relative humidity (one day in a dark dew chamber followed by two to three days in a lighted dew chamber at 20° C.) to permit spores to germinate and infect the leaf. The plants were then transferred to a greenhouse set at 20° C. for disease to develop. When disease symptoms were fully expressed on the 1st leaves of untreated plants, infection levels were assessed on a scale of 0 to 100 percent disease severity. Percent disease control was calculated using the ratio of disease severity on treated plants relative to untreated plants. Evaluation of Fungicidal Activity: Barley Scald (Rhyncosporium secalis; Bayer Code […]) Barley seedlings (variety Harrington) were propagated in soil-less Metro mix, with each pot having 8 to 12 plants, and used in the test when first leaf was fully emerged. Test plants were inoculated by an aqueous spore suspension of Rhyncosporium secalis 24 hr after fungicide treatments. After inoculation the plants were kept in a dew room at 20° C. with 100% relative humidity for 48 hr. The plants were then transferred to a greenhouse set at 20° C. for disease to develop. Fungicide formulation, application and disease assessment on the sprayed leaves followed the procedures as described in the Example A.

Puccinia triticina = experiment: Wheat brown rust (PUCCRT), percent disease control on wheat seedlings; conditions: rate 100 ppm
[1] = system: Mycosphaerella graminicola; Anamorph: Septoria tritici; experiment: Leaf blotch of wheat (SEPTTR), percent disease control on wheat seedlings; conditions: Zymoseptoria tritici, rate 100 ppm
Procedure: Evaluation of Fungicidal Activity: Leaf Blotch of Wheat (Mycosphaerella graminicola; Anamorph: Septoria tritici; Bayer Code […]) Technical grades of materials were dissolved in acetone, which were then mixed with nine volumes of water containing 110 ppm Triton X-100. The fungicide solutions were applied onto wheat seedlings using an automated booth sprayer to run-off. All sprayed plants were allowed to air dry prior to further handling. All fungicides were evaluated using the aforementioned method for their activity vs. all target diseases. Wheat leaf blotch and brown rust activity were also evaluated using track spray applications, in which case the fungicides were formulated as EC formulations, containing 0.1% Trycol 5941 in the spray solutions. Wheat plants (variety Yuma) were grown from seed in a greenhouse in 50% mineral soil/50% soil-less Metro mix until the first leaf was fully emerged, with 7-10 seedlings per pot. These plants were inoculated with an aqueous spore suspension of Septoria tritici either prior to or after fungicide treatments. […] When disease symptoms were fully expressed on the 1st leaves of untreated plants, infection levels were assessed on a scale of 0 to 100 percent disease severity. Percent disease control was calculated using the ratio of disease severity on treated plants relative to untreated plants.

Row | Structure (SMILES) | pest or weed control at 100 ppm (Rhyncosporium secalis) [%] | further results
1 | CCCO[C@H]1CCC[C@H](NC(=O)c2nccc(OC)c2OCOC(C)=O)C(=O)O[C@@H](C)[C@@H]1CCC(C)C [Compound 25, ((2-(((3S,7S,8S,9S)-8-isopentyl-9-methyl-2-oxo-7-propoxyoxonan-3-yl)carbamoyl)-4-methoxypyridin-3-yl)oxy)methyl acetate] | > 70 | 
2 | CCCC[C@H]1[C@H](C)OC(=O)[C@@H](NC(=O)c2nccc(OC)c2OCOC(C)=O)CCC[C@@H]1Oc1ccccc1 [Compound 33] | > 70 | 
3 | COc1ccnc(C(=O)N[C@H]2CCC[C@H](Oc3ccccc3)[C@@H](CCC(C)C)[C@H](C)OC2=O)c1OC(C)=O [Compound 36] | > 70 | 
4 | COc1ccnc(C(=O)N[C@H]2CCC[C@H](Oc3ccccc3)[C@@H](CCC(C)C)[C@H](C)OC2=O)c1OCOC(C)=O [Compound 40] | > 70 | 
5 | COc1ccnc(C(=O)N[C@H]2CCC[C@H](OCC3CC3)[C@@H](Cc3ccc(F)cc3)[C@H](C)OC2=O)c1OCOC(C)=O [Compound 61] | > 70 | 
6 | COc1ccnc(C(=O)N[C@H]2CCC[C@H](OCC(C)C)[C@@H](Cc3ccccc3)[C@H](C)OC2=O)c1O [Compound 62] |  | pest or weed control at 100 ppm (Puccinia triticina; 24 h, 1 Day Protectant, read-out: Disease control PUCCRT 1DP): > 70%; pest or weed control at 100 ppm (Puccinia triticina; 72 h, 3 Day Curative, read-out: Disease control PUCCRT 3DC): > 70%; pest or weed control at 100 ppm ([1]; 24 h, 1 Day Protectant, read-out: Disease control SEPTTR 1DP): > 70%; pest or weed control at 100 ppm ([1]; 72 h, 3 Day Curative, read-out: Disease control SEPTTR 3DC): < 70%
7 | CCCO[C@H]1CCC[C@H](NC(=O)c2nccc(OC)c2OC(C)=O)C(=O)O[C@@H](C)[C@@H]1Cc1ccccc1 [Compound 70] | > 70 | 
8 | CCCC[C@H]1[C@H](C)OC(=O)[C@@H](NC(=O)c2nccc(OC)c2OCOC(C)=O)CCC[C@@H]1OCC1CC1 [Compound 73] | > 70 | 
9 | CCCO[C@H]1CCC[C@H](NC(=O)c2nccc(OC)c2OC(C)=O)C(=O)O[C@@H](C)[C@@H]1CCC(C)C [Compound 74, 2-((3S,7S,8S,9S)-8-isopentyl-9-methyl-2-oxo-7-propoxyoxonan-3-yl)carbamoyl)-4-methoxypyridin-3-yl acetate] | > 70 | 

Reference: patent US9549555B2, “Macrocyclic picolinamide compounds with fungicidal activity” (DOW AGROSCIENCES LLC, priority 2013, dated 2017)
